Tests used:
[1] = Three-color excitation-multiplexed SWIR imaging of awake mouse; format: in vivo; settings: 80 minutes after i.p. 10 micelles and i.v. 3 micelles and ICG; top-view
Text: To obtain real-time images in three colors, heptamethine 10 was encapsulated in PEG-coated micelles to impart water solubility. In vivo, we introduced 10 micelles by intraperitoneal injection, and 3 micelles followed by ICG by intravenous injection. […] After establishing both the technology and the molecular tools for multiplexed real-time observation of function in mice, the next goal was to enhance existing SWIR imaging applications.
Physiological properties such as heart-rate, respiratory rate, thermoregulation, metabolism, and the function of the central nervous system, are highly impacted by anesthesia. […] Due to frame rates which are faster than macroscopic movements in animals, the heart rate and respiratory rate in awake animals can be quantified. […] The method allows physiology to be monitored with minimal perturbation of the animal's usual environment. […] The real-time collection can be visualized by observing close time-points in which a continuous movement is monitored without visual aberrations (FIG. 16A). In addition to assessing natural physiology, these tools foreshadow more complex experiments in which the location of multiple probes could be monitored over long periods of time, non-invasively and without the need for anesthesia.

[2] = Two-color SWIR lymphatic imaging of narcotized mouse; format: in vivo; settings: intradermally into footpads and base of tail, after 30 min
Text: The FIGS. 9A, 9B and 9C show merged frames representing the lymphatic system of a narcotized mouse in two-color real-time acquisition. With detector exposure time of 20 ms, a frame rate of 21 fps is achieved with the developed system. […] Then, Julo 7 micelles have been injected intravenously. The lymphatic functional imaging is later enhanced by the assignment of two distinct colors.
Light Source (785 nm laser & 1064 nm laser sequentially triggered, pulse length=21 ms)→Collimator→Mirror→1100 nm Short-pass Filter→Engineered Diffuser→Sample. The arrows represent the light path. Accordingly, the light path has been set up as follows: from Light Source (785 nm laser & 1064 nm laser sequentially triggered, pulse length=21 ms) to Collimator to Mirror to 1100 nm Short-pass Filter to Engineered Diffuser to Sample.
Sample→3×f=500 mm C-Coated lenses→Silver Mirror→1000 nm Long-pass Filter→2×f=200 mm C-coated lenses→InGaAs Detector. The arrows represent the light path. Accordingly, the light path has been set up as follows: from Sample to 3×f=500 mm C-Coated lenses to Silver Mirror to 1000 nm Long-pass Filter to 2×f=200 mm C-coated lenses to InGaAs Detector.
Sample: ICG (aqueous, 13 nmol intradermally [footpads and base of tail]) and Julo7 (micelles, 70 nmol intravenously).

[3] = stated as known property; cited from earlier work
[4] = reference value used for relative measurements; cited from earlier work
[5] = Absorptive and emissive properties of flavylium heptamethine dyes in dichloromethane; format: physicochemical
Text: As the highest energy absorber of the series, the 7-methoxy substituted dye 10 is ˜44 nm blue shifted from Flav7, with absorption at 984 nm, close to the 980 nm laser line, and emission at 1008 nm. […] The diphenylamino substituted 7 is ˜23 nm red-shifted compared to Flav7, while julolidine derivative 3 is red-shifted by ˜35 nm with absorption at 1061 nm and emission at 1088 nm. Due to its absorption maximum and high brightness (εmax), 3 was a promising candidate for SWIR imaging with 1064 nm excitation and was named Julo7. […] This increased understanding of the relationship between structural and absorption/emission wavelengths sets-up opportunities for predicting photophysical properties of the scaffold.
The absorption coefficients (ε) of the series vary from ˜110,000 to ˜240,000 M^−1cm^−1. […] The fluorescence quantum yields (φF) (relative measurements to IR-26=0.05%) remain rather constant, in the 0.4 to 0.6% range, despite red- or blue-shifted behavior, providing a platform for intensity-matched probes. […]
For excitation multiplexing, we are most interested in properties of the series of polymethine fluorophores when exited at 980 and 1064 nm. Thus, we calculated brightness (εA) values for each dye using the absorbance coefficient at the respective wavelengths. […]

## CC1(C)C(/C=C/C=C/C=C/C=C2\N(CCCCS(=O)(=O)[O-])c3ccc4ccccc4c3C2(C)C)=[N+](CCCCS(=O)(=O)[O-])c2ccc3ccccc3c21.[Na+] [ICG, indocyanine green]
[1]
  location of probe in awake mouse: exclusively in the liver
[2]
  conduction through the lymphatic vessels: efficiently conducted through the lymphatic vessels
[3]
  clearance route: clears efficiently and exclusively from the liver

## ClC1=C(/C=C/c2cc(-c3ccccc3)[s+]c3ccccc23)CCC/C1=C\C=C1/C=C(c2ccccc2)Sc2ccccc21.[O-][Cl+3]([O-])([O-])[O-] [IR-26]
[4]
  fluorescence quantum yield of reference standard: 0.05%

## CN(C)c1ccc2c(c1)OC(c1ccccc1)=C/C2=C\C=C1/CCCC(/C=C/c2cc(-c3ccccc3)[o+]c3cc(N(C)C)ccc23)=C1Cl [dye 1]
[5]
  λmax,abs (absorption): 1027 nm
  λmax,em (emission): 1053 nm
